Article PMC9814657, “Generative and reinforcement learning approaches for the automated de novo design of bioactive compounds” (Communications Chemistry, 2022)

Experiments:
[1] = molecular target: T1, epidermal growth factor receptor (EGFR) (Homo sapiens, UniProt P00533); assay: biochemical; parameters: 33P radiometric HotSpot filter-binding EGFR kinase assay, 10 uM ATP, Reaction Biology; settings: 10 uM ATP; read-out: EGFR pIC50 (converted)
Method: Compounds that emerged as computational hits were purchased from Enamine (https://www.enaminestore.com/) and resuspended in 100% DMSO at 10 mM concentration. In vitro experiments were performed at Reaction Biology (https://www.reactionbiology.com/) using a radioactive assay based on the transfer of ^33P-labeled phosphate from ATP to the kinase substrate. The HotSpot^SM assay utilizes a miniaturized filter binding, where reaction mixtures are spotted onto filter papers. Then reaction mixture binds the radioisotope-labeled catalytic product. Unreacted phosphate is removed via washing of the filter papers. All reactions were carried out at 10 μM ATP concentrations. Seventeen computational hit molecules were matched with Enamine REAL. […] The twenty three 4-anilinoquinazoline analogs were dissolved in DMSO and sent to Reaction Biology (https://www.reactionbiology.com/) for EGFR enzymatic assay screening. […] The 4-anilinoquinazoline analogs were initially tested in single-dose duplicate mode at a concentration of 1 μM and percent inhibition relative to DMSO control was determined (Table S1).

[2] = molecular target: T1, epidermal growth factor receptor (EGFR); assay: biochemical; parameters: 33P radiometric HotSpot filter-binding EGFR kinase assay, 10 uM ATP, Reaction Biology; settings: 10 uM ATP
Method: Compounds that emerged as computational hits were purchased from Enamine (https://www.enaminestore.com/) and resuspended in 100% DMSO at 10 mM concentration. In vitro experiments were performed at Reaction Biology (https://www.reactionbiology.com/) using a radioactive assay based on the transfer of ^33P-labeled phosphate from ATP to the kinase substrate. The HotSpot^SM assay utilizes a miniaturized filter binding, where reaction mixtures are spotted onto filter papers. Then reaction mixture binds the radioisotope-labeled catalytic product. Unreacted phosphate is removed via washing of the filter papers. All reactions were carried out at 10 μM ATP concentrations. Seventeen computational hit molecules were matched with Enamine REAL. All of the predicted active compounds were derivatives of 4-anilinoquinazoline, a chemotype that was well represented in Enamine REAL (Table S1). The predicted active compounds contained a few small substituents on the quinazoline ring (positions 5–8: F, Cl, Br, OCH3) but a wide range of substituents on the 4-anilino group. […] The twenty three 4-anilinoquinazoline analogs were dissolved in DMSO and sent to Reaction Biology (https://www.reactionbiology.com/) for EGFR enzymatic assay screening. Two compounds in the predicted active series were insoluble in DMSO; therefore, biological tests were not performed. The 4-anilinoquinazoline analogs were initially tested in single-dose duplicate mode at a concentration of 1 μM and percent inhibition relative to DMSO control was determined (Table S1).

[3] = molecular target: T1, epidermal growth factor receptor (EGFR); assay: […] radiometric HotSpot kinase assay, 10-dose IC50, […] ATP (Reaction Biology); assay type: biochemical

T1 sequence (P00533 25-1210): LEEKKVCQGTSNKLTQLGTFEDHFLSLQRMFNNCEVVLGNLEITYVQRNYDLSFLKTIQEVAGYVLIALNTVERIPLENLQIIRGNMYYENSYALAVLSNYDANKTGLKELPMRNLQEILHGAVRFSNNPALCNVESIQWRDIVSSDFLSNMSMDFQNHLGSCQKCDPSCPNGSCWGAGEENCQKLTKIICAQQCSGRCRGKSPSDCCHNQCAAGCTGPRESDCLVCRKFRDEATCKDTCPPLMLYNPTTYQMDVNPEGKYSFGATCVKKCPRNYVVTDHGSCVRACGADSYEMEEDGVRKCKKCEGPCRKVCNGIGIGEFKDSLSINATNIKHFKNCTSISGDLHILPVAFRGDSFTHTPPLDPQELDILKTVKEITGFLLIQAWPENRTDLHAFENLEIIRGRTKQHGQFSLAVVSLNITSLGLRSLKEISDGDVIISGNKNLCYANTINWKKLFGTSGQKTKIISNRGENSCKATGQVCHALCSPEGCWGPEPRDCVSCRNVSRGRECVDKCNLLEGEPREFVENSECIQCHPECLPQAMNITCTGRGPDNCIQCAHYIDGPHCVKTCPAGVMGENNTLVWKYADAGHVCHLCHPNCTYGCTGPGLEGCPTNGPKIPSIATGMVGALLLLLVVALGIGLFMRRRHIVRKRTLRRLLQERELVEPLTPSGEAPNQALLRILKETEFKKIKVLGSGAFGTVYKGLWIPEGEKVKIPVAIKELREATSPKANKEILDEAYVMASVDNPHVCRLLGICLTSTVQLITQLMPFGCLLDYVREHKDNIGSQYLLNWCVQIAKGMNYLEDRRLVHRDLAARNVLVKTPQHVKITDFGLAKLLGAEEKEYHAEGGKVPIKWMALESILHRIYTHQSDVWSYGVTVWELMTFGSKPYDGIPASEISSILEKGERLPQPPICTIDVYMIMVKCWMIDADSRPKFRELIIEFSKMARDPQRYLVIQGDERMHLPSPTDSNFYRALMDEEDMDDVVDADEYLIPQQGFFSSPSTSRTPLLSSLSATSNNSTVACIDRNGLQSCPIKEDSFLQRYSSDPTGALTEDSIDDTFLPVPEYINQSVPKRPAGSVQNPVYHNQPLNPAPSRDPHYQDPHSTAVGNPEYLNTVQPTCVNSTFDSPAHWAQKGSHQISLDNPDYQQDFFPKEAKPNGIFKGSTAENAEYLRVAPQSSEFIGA

Row | SMILES | inhibition at 1 µM [2] [%] | further results
1 | Fc1ccc(Nc2ncnc3ccc(Br)cc23)cc1 [ZINC000000099087] | 96 | IC50 [1]: 31.6 nM
2 | Fc1ccc2ncnc(Nc3ccc(N4CCCC4)cc3)c2c1 [ZINC000041479925] | 8 | –
3 | CN(C)C1CCN(c2ccc(Nc3ncnc4ccc(F)cc34)cc2)CC1 [ZINC000089266948] | 14 | –
4 | Fc1ccc(Nc2ncnc3ccc(F)cc23)cc1 [ZINC000092611293] | 12 | –
5 | OC1CCN(c2ccc(Nc3ncnc4ccc(Br)cc34)cc2)CC1 [ZINC000112964683] | 10 | –
6 | CNC(=O)CCOc1ccc(Nc2ncnc3cc(Cl)ccc23)cc1 [ZINC000301175853] | 12 | –
7 | Nc1c(Cl)cc(Nc2ncnc3ccc(F)cc23)cc1Cl [ZINC000301931984] | 89 | IC50 [1]: 39.8 nM
8 | CN(C)CCc1ccc(Nc2ncnc3ccc(F)cc23)cc1 [ZINC000301950472] | 10 | –
9 | CN(C)C1CCN(c2ccc(Nc3ncnc4ccc(Br)cc34)cc2)CC1 [ZINC000301979927] | 8 | –
10 | COCCOc1ccc(Nc2ncnc3cc(F)c(OC)cc23)cc1F [ZINC000302555896] | 12 | –
11 | Nc1c(Cl)cc(Nc2ncnc3c(F)cccc23)cc1Cl [ZINC000302791534] | 47 | IC50 [1]: 1260 nM
12 | CN(C)C1CCN(c2ccc(Nc3ncnc4c(F)cccc34)cc2)CC1 [ZINC000302845052] | 12 | –
13 | COCCOc1ccc(Nc2ncnc3c(F)cccc23)cc1Cl [ZINC000302873009] | 16 | –
14 | OC1CCCCC1Oc1ccc(Nc2ncnc3ccc(F)cc23)cc1 (centres unmarked) [ZINC000440544230] | 4 | –
15 | Cc1ccc(Nc2ncnc3cccc(F)c23)cc1F [ZINC000480349471] | 83 | IC50 [1]: 200 nM
16 | COCCOc1ccc(Nc2ncnc3cccc(F)c23)cc1F [ZINC000480418233] | 8 | –
17 | OCCCOc1ccc(Nc2ncnc3cc(Cl)ccc23)cc1 [ZINC000572311742] | 0 | –
18 | CN(C)CCc1ccc(Nc2ncnc3ccc(Cl)cc23)cc1 [ZINC000594704454] | 8 | –
19 | CN(C)CC1CCN(c2ccc(Nc3ncnc4ccc(Br)cc34)cc2)CC1 [ZINC000737413605] | 14 | –
20 | Fc1ccc(Nc2ncnc3ccc(Br)cc23)cc1 [compound 1, Z1192045732] | – | pIC50 [3]: 7.5 pIC50
21 | Nc1c(Cl)cc(Nc2ncnc3ccc(F)cc23)cc1Cl [compound 2, Z1576525970] | – | pIC50 [3]: 7.4 pIC50
22 | Nc1c(Cl)cc(Nc2ncnc3c(F)cccc23)cc1Cl [compound 4, Z1823625743] | – | IC50 [3]: 1400 nM
